Test results published in patent publication US20110008475A1, “USE OF AN EMULSION OF MINT OIL OR OF L-CARVONE FOR THE FUNGICIDAL TREATMENT OF FRUIT, VEGETABLES OR PLANTS” (priority 2007, published 2011).

Tested on: Peronospora brassicae (cabbage mildew)
Assay: Effect of L-carvone on cabbage mildew (infected cabbages treated after inoculation)
Format: in vivo
Conditions: cabbages infected with Peronospora brassicae, treated rapidly after inoculation; L-carvone at a minimal concentration of 1%; 21 days; FIG. 1
Source text: Cabbages were infected with Peronospora brassicae (cabbage mildew) then treated rapidly after inoculation with L-carvone or Aliette.

C=C(C)C1CC=C(C)C(=O)C1 [L-carvone, 2-methyl-5-(1-methylethenyl)-2-cyclohexen-1-one]
control of the infection by cabbage mildew: able to control the infection effectively for 21 days
